Source: patent publication US20110195910A1, “USE OF TOCOTRIENOL COMPOSITION FOR THE PREVENTION OF CANCER” (DAVOS LIFE SCIENCE PTE. LTD., priority 2008, published 2011)

Key:
G361 cells [1] = assay: Matrigel-invasion assay, G361 cells; assay type: cell-based; conditions: γ-T3 at IC50 and IC85
Procedure: 1.1.4 Matrigel-invasion assay—Matrigel-invasion assay was performed according to a previously published method with modifications. Briefly, cells were pre-incubated in a serum-free RPMI 1640 medium with or without γ-T3 isomers for 24 hrs. Cells (2.5×10^5) resuspended in 500 μl of serum-free RPMI 1640 containing 0.1% bovine serum albumin (BSA) were then added to the upper chamber of a 8 μm pore size insert (Millipore, Bedford, Mass.) manually coated with Matrigel (0.5 mg/ml) (BD Bioscience, Bedford, Mass.). Five hundred μl of invasion buffer containing fibronectin (10 μg/ml) and RPMI 1640 supplemented with 10% FCS were added in the lower chamber as a chemo-attractant. Cells were incubated at 37° C. for 24 hrs in 5% CO2 humidified conditions. At the end of incubation period, inserts were stained with Diff-Quick staining solution (Fischer Scientific). Non-invaded cells on the inside of the insert were scraped off with a cotton swab. Cell invasions were then examined by a phase-contrast microscope. The invaded cells were extracted using extraction buffer (Millipore, Bedford, Mass.) and the cell number was estimated based on absorbance at 595 nm.

G361 cells [2] = assay: Western blotting of epithelial/mesenchymal markers, G361 cells; assay type: cell-based; conditions: G361, 24 hrs
Procedure: 1.1.5 Western blotting—Detailed protocols have been described previously and are known in the art. Briefly, cell lysates were prepared by suspending cell pellets in lysis buffer [50 mmol/l Tris-HCl (pH 8.0), 150 mmol/l NaCl, 1% NP40, 0.5% deoxycholate, 0.1% SDS, 1 mg/ml aprotinin, 1 μg/ml leupeptin and 1 mmol/l phenylmethylsulfonyl fluoride]. For nuclear protein extraction, NucBuster™ protein extraction kit was used. Protein concentration was measured using the DC Protein Assay kit (Bio-Rad, Hercules, Calif.). Equal amount of protein (30 μg) was loaded onto a 10% SDS polyacrylamide gel for electrophoresis and then transferred onto a polyvinylidene difluoride membrane (Amersham, Piscataway, N.J.). The membrane was then incubated with primary antibodies for 1 hr at room temperature against E-cadherin (BD Biosciences, Bedford, Mass.), α-catenin, β-catenin, γ-catenin, Id-1, Id-3, EGFR, phosphor-c-jun, phosphor-ATF2, cleaved PARP, vimentin, α-smooth muscle actin, twist (Santa Cruz Biotechnology, Calif.), phosphor-IkB-alpha (Ser32/36), phosphor-IKK alpha (Seri 80)/IKK beta (Ser181), phosphor-SAPK/JNK (Thr183/Tyr185) G9, SAPK/JNK, NF-kB p65 (5A5) (Cell Signaling Technology Inc, Beverly, Mass.), Snail (Abcam). […] Expression of β-actin and histone H1 were assessed as an internal loading control for total cell lysate and nuclear protein lysate respectively.

PC-3-luc cells = assay: Orthotopic PC-3 xenograft model (tumorigenicity of pre-treated cells); assay type: in vivo, CB-17 SCID mice; conditions: cells pre-treated with 5 μg/ml for 24 hrs; two weeks after implantation
Procedure: 5.1.9 Orthotopic PC-3 xenograft model—The orthotopic model was established with procedures known in the art. Briefly, 8-week-old CB-17 SCID mice were anesthetized and placed under a dissecting microscope (Olympus, Tokyo, Japan). An incision at the midline of abdomen was made and the dorsal prostate was exposed at the base of the bladder. Equal amount of viable PC3-luc cells (2.6×10^4 cells resuspended in 5 μl of serum free RPMI) with or without prior γ-T3 treatment for 24 hrs were injected into the dorsal prostates of the mice. Organs were replaced and the abdomen was closed. To detect the bioluminescent signal of the cells, mice were anesthetized and then injected with 80 mg/kg of D-luciferin solution by i.p. (Xenogen Corporation, Cranbury, N.J.). Signal was captured by Xenogen IVIS 100 series imaging system. Tumors progression was monitored by measuring the bioluminescent signal (units of photons per second per unit area) every 2 weeks until 6-week post tumor implantation. Mice were sacrificed by cervical dislocation and tumors were collected and fixed in 10% formalin. All surgical and animal handling procedures were carried out according to the guidelines of the Committee on the Use of Live Animals in Teaching and Research (CULATR), The University of Hong Kong.

[3] = tested on: prostate intraepithelial neoplasia (PIN); assay: Prevention of prostate intraepithelial neoplasia (PIN) in prostate cancer mouse models; assay type: in vivo; conditions: fed mice, FIG. 8
Procedure: For experiments, 5-week old prostate cancer mouse models previously published (Gabril, M. Y., Duan, W., et al., Molecular Therapy (2005), vol. 11, no. 3, p. 348; Greenberg et al., Proc Natl Acad Sci USA (1995), vol. 92, pp. 3439-3443; Duan, W., Gabril, M. Y., et al., Oncogene (2005) 24, 1510-1524; Wang S, Gao J, et al., Cancer Cell., 2003, vol. 4, no. 3, pp. 209-21; Gabril, M. Y., Onita, T., et al., Gene Ther., 2002, vol. 9, no. 23, pp. 1589-99) are used. All animal experiments were conducted according to standard protocols approved by Animal Care Committee. Genotyping was performed in PSP-TGMAP, and KIMAP mice were identified by a quick PCR genotyping protocol as previously reported (see above references referred to under item 6).
In one exemplary experiment, the animals are given 1 mg of gamma tocotrienol per day for 30 weeks via oral gavage. At the end of 10, 20 and 30 weeks, animals are sacrificed. The prostate along with the male accessory glands, i.e., the ventral and dorsolateral prostate lobes, seminal vesicles, and coagulation gland, were dissected out separately for histopathological characterization of prostate tumor development, prostate intraepithelial neoplasia (PIN) development and microinvasion. […]

Question: With `CC(C)=CCC/C(C)=C/CC/C(C)=C/CCC1(C)CCc2cc(O)c(C)c(C)c2O1` (centres unmarked) [γ-T3, 7,8-dimethyltocotrienol] as the compound, how does the “invasion capability compared to untreated control” value (G361 cells [1]) read?
Answer: 2 -time lower

Question: What about the “E-cadherin and γ-catenin protein expression” value (G361 cells [2]) of the same compound?
Answer: up-regulated

Question: What about the “Snail and mesenchymal markers (vimentin, α-SMA and twist) expression” value (G361 cells [2]) of the same compound?
Answer: down-regulated

Question: What about the “mice that failed to develop visible tumor” value (PC-3-luc cells) of the same compound?
Answer: 5 out of 7

Question: What about the “development of prostate intraepithelial neoplasia (PIN)” value [3] of the same compound?
Answer: prevent the formation of prostate intraepithelial neoplasia (PIN)
